Source: patent US9181214B2 (RHIZEN PHARMACEUTICALS SA, priority 2011, dated 2015)

Molecular target: T1, human GPR119 (Homo sapiens, UniProt Q8TDV5)
T1 construct: expressed in transfected cells; host or cells: HEK293 (transient transfection, Lipofectamine 2000)
T1 sequence (Q8TDV5 1-335): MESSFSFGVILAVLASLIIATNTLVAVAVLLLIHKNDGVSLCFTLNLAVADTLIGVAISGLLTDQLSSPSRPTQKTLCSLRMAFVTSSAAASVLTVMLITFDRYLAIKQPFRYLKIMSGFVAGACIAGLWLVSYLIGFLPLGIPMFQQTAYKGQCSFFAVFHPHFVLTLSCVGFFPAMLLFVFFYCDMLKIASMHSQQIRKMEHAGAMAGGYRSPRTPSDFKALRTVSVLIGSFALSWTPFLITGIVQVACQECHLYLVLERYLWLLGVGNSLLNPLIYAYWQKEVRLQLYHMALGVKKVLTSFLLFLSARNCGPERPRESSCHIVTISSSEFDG
Assay: In vitro cyclic AMP assay (Cisbio HTRF) in HEK293 cells transfected with human GPR119
Format: cell-based
Settings: cAMP; for activation at 10 µM: 1 h, % Induction @ 10 μM; for EC50: Emax varies between 65 to 80%
Method: A. In Vitro Cyclic AMP Assay:
cAMP measurements were done using a Cisbio dynamic 2 HTRF kit (Cisbio, Bedford, Mass.) according to the manufacturer's protocol. Briefly, HEK293 cells (0.2×10^6/well) were plated in a 24 well plate and incubated overnight at 37° C. Cells were transfected with either empty vector DNA or human GPR119 expression plasmid DNA using Lipofectamine 2000 (Invitrogen). After 24 h, transfected cells were harvested, counted and plated at 1000 cells/5 ul in a black 384 welled small volume plate. Cells were treated with desired concentrations of compounds and incubated for 60 min at room temperature. Lysis buffer containing cAMP-d2 and cryptate conjugate were added and incubated for 1 h. HRTF ratio was measured on a microplate reader (BMG Labtech., Germany) at an excitation wavelength of 337 nm and emission wavelengths of 665 and 620 nm with an integration time of 400 μsec. Data were analyzed using Graphpad Prism (Graphpad software; San Diego Calif.) for EC50 determination.
The results are as given in Table I as % Induction@ 10 μM, Table II as % Induction@ 10 μM and EC 50 in nM

An activation at 10 µM (Table II) of 74.9% and an EC50 (Table II) of 50 to 250 nM were found for CC(C)OC(=O)N1CCC(c2ccc3nc(-c4ccc(S(C)(=O)=O)cc4F)sc3c2)CC1 [EXAMPLE-76, Isopropyl 4-{2-[2-fluoro-4-(methylsulfonyl)phenyl]benzo[d]thiazol-6-yl}piperidine-1-carboxylate] in this work.

An activation at 10 µM (Table II) of 80.4% and an EC50 (Table II) of 50 to 250 nM were found for CC(C)OC(=O)N1CCC(c2ccc3oc(-c4ccc(C(F)(F)F)cc4)nc3c2)CC1 [EXAMPLE-77, Isopropyl 4-{2-[4-(trifluoromethyl)phenyl]benzo[d]oxazol-5-yl}piperidine-1-carboxylate] in this work.

An activation at 10 µM (Table I) of 35.4% was found for CCc1cnc(N2CCC(c3nc4cc(-c5ccc(S(C)(=O)=O)cc5F)ccc4o3)CC2)nc1 [EXAMPLE-3, 2-[1-(5-ethylpyrimidin-2-yl)piperidin-4-yl]-5-[2-fluoro-4-(methylsulfonyl)phenyl]benzo[d]oxazole] in this work.

An activation at 10 µM (Table II) of 59.4% was found for Cc1ccc(-c2nc3ccc(C4CCN(C(=O)OC(C)C)CC4)cc3o2)cc1 [EXAMPLE-78, Isopropyl 4-(2-p-tolylbenzo[d]oxazol-6-yl)piperidine-1-carboxylate] in this work.

An activation at 10 µM (Table I) of 78.6% and an EC50 (Table I) of 25 to 50 nM were found for CC(C)OC(=O)N1CCC(c2nc3cc(-c4ccc(C(F)F)cc4)ccc3o2)CC1 [EXAMPLE-29, Isopropyl 4-{5-[4-(difluoromethyl)phenyl]benzo[d]oxazol-2-yl}piperidine-1-carboxylate] in this work.

An activation at 10 µM (Table I) of 43.7% was found for CCc1cnc(N2CCC(c3nc4cc(-c5ccc(-n6cnnn6)cc5F)ccc4o3)CC2)nc1 [EXAMPLE-16, 2-[1-(5-ethylpyrimidin-2-yl)piperidin-4-yl]-5-[2-fluoro-4-(1H-tetrazol-1-yl)phenyl]benzo[d]oxazole] in this work.

An activation at 10 µM (Table II) of 72.7% was found for CC(C)(C)OC(=O)N1CCC(c2ccc3sc(-c4ccc(S(C)(=O)=O)cc4F)nc3c2)CC1 [EXAMPLE-68, Tert-butyl 4-{2-[2-fluoro-4-(methylsulfonyl)phenyl]benzo[d]thiazol-5-yl}piperidine-1-carboxylate] in this work.

An activation at 10 µM (Table I) of 68.2% and an EC50 (Table I) of 100 to 500 nM were found for CC(C)(C)OC(=O)N1CCC(c2nc3cc(-c4ccc(C(F)(F)F)cc4)ccc3o2)CC1 [EXAMPLE-13, Tert-butyl 4-{5-[4-(trifluoromethyl)phenyl]benzo[d]oxazol-2-yl}piperidine-1-carboxylate] in this work.

An activation at 10 µM (Table I) of 64.5% was found for CC(C)Oc1ccc(-c2ccc3oc(C4CCN(C(=O)OC(C)(C)C)CC4)nc3c2)cc1F [EXAMPLE-22, Tert-butyl 4-[5-(3-fluoro-4-isopropoxyphenyl)benzo[d]oxazol-2-yl]piperidine-1-carboxylate] in this work.

An activation at 10 µM (Table I) of 35.8% was found for CC(C)(C)OC(=O)N1CCC(c2nc3cc(-c4ccc(S(C)(=O)=O)cc4F)ccc3[nH]2)CC1 [EXAMPLE-2, Tert-butyl 4-{5-[2-fluoro-4-(methylsulfonyl)phenyl]-1H-benzo[d]imidazol-2-yl}piperidine-1-carboxylate] in this work.

An activation at 10 µM (Table II) of 14.7% was found for CS(=O)(=O)c1ccc(-c2nc3cc(C4CCN(C(=O)OCc5ccccc5)CC4)ccc3o2)c(F)c1 [EXAMPLE-74, Benzyl 4-{2-[2-fluoro-4-(methylsulfonyl)phenyl]benzo[d]oxazol-5-yl}piperidine-1-carboxylate] in this work.

An activation at 10 µM (Table II) of 57.5% was found for CC(C)COC(=O)N1CCC(c2ccc3oc(-c4ccc(S(C)(=O)=O)cc4F)nc3c2)CC1 [EXAMPLE-75, Isobutyl 4-{2-[2-fluoro-4-(methylsulfonyl)phenyl]benzo[d]oxazol-5-yl}piperidine-1-carboxylate] in this work.

An activation at 10 µM (Table II) of 72.8% and an EC50 (Table II) of 25 to 50 nM were found for CC(C)(C)OC(=O)N1CCC(c2ccc3oc(-c4ccc(S(C)(=O)=O)cc4F)nc3c2)CC1 [EXAMPLE-60, Tert-butyl 4-{2-[2-fluoro-4-(methylsulfonyl)phenyl]benzo[d]oxazol-5-yl}piperidine-1-carboxylate] in this work.

An activation at 10 µM (Table I) of 66.7% and an EC50 (Table I) of 25 to 50 nM were found for CC(C)(C)OC(=O)N1CCC(c2nc3cc(-c4ccc(S(C)(=O)=O)cc4F)cc(F)c3o2)CC1 [EXAMPLE-8, Tert-butyl 4-{7-fluoro-5-[2-fluoro-4-(methylsulfonyl)phenyl]benzo[d]oxazol-2-yl}piperidine-1-carboxylate] in this work.

An activation at 10 µM (Table II) of 73% and an EC50 (Table II) of 25 to 50 nM were found for CC(C)(C)OC(=O)N1CCC(c2ccc3nc(-c4ccc(S(C)(=O)=O)cc4F)oc3c2)CC1 [EXAMPLE-67, Tert-butyl 4-{2-[2-fluoro-4-(methylsulfonyl)phenyl]benzo[d]oxazol-6-yl}piperidine-1-carboxylate] in this work.

An activation at 10 µM (Table II) of 76.6% and an EC50 (Table II) of at most 25 nM were found for CC(C)OC(=O)N1CCC(c2ccc3nc(-c4ccc(S(C)(=O)=O)cc4F)oc3c2)CC1 [EXAMPLE-71, Isopropyl 4-{2-[2-fluoro-4-(methylsulfonyl)phenyl]benzo[d]oxazol-6-yl}piperidine-1-carboxylate] in this work.

An activation at 10 µM (Table I) of 55.4% was found for CCc1cnc(N2CCC(c3nc4cc(-c5ccc(S(C)(=O)=O)cc5F)ccc4[nH]3)CC2)nc1 [EXAMPLE-1, 2-[1-(5-Ethylpyrimidin-2-yl)piperidin-4-yl]-5-[2-fluoro-4-(methylsulfonyl)phenyl]-1H-benzo[d]imidazole] in this work.

An activation at 10 µM (Table I) of 62.6% and an EC50 (Table I) of 50 to 100 nM were found for CC(C)OC(=O)N1CCC(c2nc3cc(-c4ccc(S(C)(=O)=O)cc4F)ccc3o2)CC1 [EXAMPLE-7, Isopropyl 4-{5-[2-fluoro-4-(methylsulfonyl)phenyl]benzo[d]oxazol-2-yl}piperidine-1-carboxylate] in this work.

An activation at 10 µM (Table I) of 68.4% and an EC50 (Table I) of 100 to 500 nM were found for CC(C)(C)OC(=O)N1CC=C(c2cc3cc(-c4ccc(C(N)=O)c(F)c4)ccc3o2)CC1 [EXAMPLE-52, Tert-butyl 4-[5-(4-carbamoyl-3-fluorophenyl)benzofuran-2-yl]-5,6-dihydropyridine-1(2H)-carboxylate] in this work.

An activation at 10 µM (Table II) of 29.8% was found for CS(=O)(=O)c1ccc(-c2nc3cc(C4CCNCC4)ccc3o2)c(F)c1 [EXAMPLE-61, 2-[2-fluoro-4-(methylsulfonyl)phenyl]-5-(piperidin-4-yl)benzo[d]oxazole 2,2,2-trifluoroacetate] in this work.

An activation at 10 µM (Table I) of 59.2% and an EC50 (Table I) of 500 to 1000 nM were found for CC(C)(C)OC(=O)N1CCC(c2nc3cc(-c4ccc(S(C)(=O)=O)c(F)c4)ccc3o2)CC1 [EXAMPLE-10, Tert-butyl 4-{5-[3-fluoro-4-(methylsulfonyl)phenyl]benzo[d]oxazol-2-yl}piperidine-1-carboxylate] in this work.

An activation at 10 µM (Table I) of 41% was found for Cn1c(C2CCN(C(=O)OC(C)(C)C)CC2)nc2cc(-c3ccc(S(C)(=O)=O)cc3F)ccc21 [EXAMPLE-5, Tert-butyl 4-{5-[2-fluoro-4-(methylsulfonyl)phenyl]-1-methyl-1H-benzo[d]imidazol-2-yl}piperidine-1-carboxylate] in this work.

An activation at 10 µM (Table II) of 32.1% was found for CC(C)(C)OC(=O)N1CC=C(c2ccc3nc(-c4ccc(S(C)(=O)=O)cc4F)sc3c2)CC1 [EXAMPLE-65, Tert-butyl 4-{2-[2-fluoro-4-(methylsulfonyl)phenyl]benzo[d]thiazol-6-yl}-5,6-dihydropyridine-1(2H)-carboxylate] in this work.

An activation at 10 µM (Table II) of 18.9% was found for CC(C)(C)OC(=O)N1CC=C(c2ccc3sc(-c4ccc(S(C)(=O)=O)cc4F)nc3c2)CC1 [EXAMPLE-66, Tert-butyl 4-{2-[2-fluoro-4-(methylsulfonyl)phenyl]benzo[d]thiazol-5-yl}-5,6-dihydropyridine-1(2H)-carboxylate] in this work.

An activation at 10 µM (Table I) of 62.2% and an EC50 (Table I) of 500 to 1000 nM were found for CC(C)OC(=O)N1CCC(c2nc3cc(-c4ccc(C(N)=O)c(Cl)c4)ccc3o2)CC1 [EXAMPLE-30, Isopropyl 4-[5-(4-carbamoyl-3-chlorophenyl)benzo[d]oxazol-2-yl]piperidine-1-carboxylate] in this work.
